From US6720346B2, “Thiazole benzamide derivatives and pharmaceutical compositions for inhibiting cell proliferation” (Agouron Pharmaceuticals, Inc., priority 2001, dated 2004)
Structures can show the parent of a compound that is named as a salt.

Assays:
[1] = biological target: T1, CDK2/cyclin A (Homo sapiens, UniProt P24941); experiment: Inhibition of CDK2/cyclin A retinoblastoma kinase activity (Ki; % inhibition); assay type: biochemical; settings: for Ki: apparent Ki, CDK2/cyclin A, Rb substrate
T1 construct: made in house; host or cells: CDK2: insect cells (baculovirus); cyclin A: E. coli
Outline: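 Apparent Ki values came from fitting concentration-dependent activity data to competitive (or competitive tight-binding) models, and % inhibition from single 30 nM screens of library compounds. Activity was measured as ³²P/³³P incorporation from 25 μM ATP into an Rb substrate by 10 or 19 nM CDK2/delta cyclin A at 30 °C over 60–75 min, pH 7.4.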

[2] = biological target: T2, human CDK4/cyclin D3 (Homo sapiens, UniProt P11802); experiment: Inhibition of CDK4/cyclin D retinoblastoma kinase activity (Ki; % inhibition); assay type: biochemical; settings: for Ki: apparent Ki, CDK4/cyclin D3, Rb substrate
T2 construct: made in house; host or cells: insect cells co-infected with baculovirus vectors
Outline: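 Radiometric filter-binding read-out: Rb residues 386-928 phosphorylated by 5 nM CDK4/cyclin D3(1-264) from baculovirus-infected insect cells, 25 μM ATP, HEPES pH 7.4, 30 °C. Run 20 min, or 60 min for tight-binding inhibitors. Screening at 30 nM theoretical compound; apparent Ki by competitive-inhibition fitting.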

[3] = test system: HCT-116 cell line; experiment: Inhibition of cell growth, MTT tetrazolium salt assay; assay type: cell-based; settings: for IC50: Homo sapiens, HCT-116, 120 h, MTT, three to five days
Outline: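 Cells in McCoy's 5A medium were given 4 h before compound addition in 0.5% (v/v) DMSO, then incubated 3–5 days at 37 °C, 5% CO2. After 4 h with 0.2 mg/mL MTT, DMSO-solubilized formazan was read at 540 nm; 50% and 90% growth-inhibitory concentrations came from semi-log plots against vehicle controls.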

[4] = HCT-116 cells, 0.25 μM compound

T2 sequence (P11802 whole entry): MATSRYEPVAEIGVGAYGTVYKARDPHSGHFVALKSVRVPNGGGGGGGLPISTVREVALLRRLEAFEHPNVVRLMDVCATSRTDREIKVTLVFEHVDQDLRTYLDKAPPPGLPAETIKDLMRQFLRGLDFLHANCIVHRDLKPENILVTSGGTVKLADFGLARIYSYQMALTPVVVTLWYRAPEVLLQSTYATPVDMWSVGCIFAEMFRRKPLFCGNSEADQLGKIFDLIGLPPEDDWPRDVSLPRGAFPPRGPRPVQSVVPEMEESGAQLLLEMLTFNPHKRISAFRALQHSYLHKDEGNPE
T2 sequence (P30281 1-264 partner limits assumed): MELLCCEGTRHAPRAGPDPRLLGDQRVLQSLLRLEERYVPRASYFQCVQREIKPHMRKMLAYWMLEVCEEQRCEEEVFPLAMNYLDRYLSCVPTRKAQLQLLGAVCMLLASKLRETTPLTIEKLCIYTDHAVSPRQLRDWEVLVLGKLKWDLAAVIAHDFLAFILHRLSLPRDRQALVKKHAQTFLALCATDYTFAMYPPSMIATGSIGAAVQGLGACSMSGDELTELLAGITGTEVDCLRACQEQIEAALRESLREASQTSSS

| SMILES | CDK2 % Inhibition at 0.03 μM ([1]; at 0.03 μM) | CDK4 % Inhibition at 0.03 μM ([2]; at 0.03 μM) | HCT-116 % Inhibition at 0.25 μM ([3]; HCT-116, at 0.25 μM) | CDK2 % Inhibition at 0.03 μM ([1]; 0.03 μM compound) | CDK4 % Inhibition at 0.03 μM ([2]; 0.03 μM compound) | HCT-116 % Inhibition at 0.1 μM ([3]; HCT-116 cells, 0.1 μM compound) | HCT-116 % Inhibition at 0.25 μM [3, 4] | other results |
| --- | --- | --- | --- | --- | --- | --- | --- | --- |
| CNC(=O)C(C)NC(=O)c1ccc(Nc2nc(N)c(C(=O)c3c(F)cccc3F)s2)cc1 (stereo not drawn) [Example G192] | 8% | 23% | 49% |  |  |  |  | HCT-116 % Inhibition at 0.1 μM ([3]; HCT-116, at 0.1 μM): 13% |
| CCCCC(CO)NC(=O)c1ccc(Nc2nc(N)c(C(=O)c3c(F)cccc3F)s2)cc1 (stereo not drawn) [Example G329] |  |  |  | 10% | 19% | 9% | 56% |  |
| Nc1nc(Nc2ccc(C(=O)N3CCCCC3CCO)cc2)sc1C(=O)c1c(F)cccc1F (stereo not drawn) [Example G265] |  |  |  | −24% | 1% | 21% | 48% |  |
| Nc1nc(Nc2ccc(C(=O)NCCc3cccc(C(F)(F)F)c3)cc2)sc1C(=O)c1c(F)cccc1F [Example G276] |  |  |  | 2% | −2% | 25% | 58% |  |
| Cc1cccc(Cl)c1NC(=O)c1ccc(Nc2nc(N)c(C(=O)c3c(F)cccc3F)s2)cc1 [Example G15] | −12% | 4% | 46% |  |  |  |  |  |
| CN1CCC[C@@]1(C)CNC(=O)c1ccc(Nc2nc(N)c(C(=O)c3c(F)cccc3F)s2)cc1 [Example A74, 4-{4-Amino-5-(2,6-difluoro-benzoyl)-thiazol-2-ylamino}-N-(1,2-dimethyl-pyrrolidin-2S-ylmethyl)-benzamide Trifluoroacetic Acid Salt] |  |  |  |  |  |  |  | Ki [1]: 9.8 nM; Ki [2]: 380 nM; IC50 [3]: 1900 nM |
| Nc1nc(Nc2ccc(C(=O)NCc3ccccc3)cc2)sc1C(=O)c1c(F)cccc1F [Example G181] | 30% | 36% | 75% |  |  |  |  | HCT-116 % Inhibition at 0.1 μM ([3]; HCT-116, at 0.1 μM): 28% |
| Nc1nc(Nc2ccc(C(=O)N3CCN(CCc4cccs4)CC3)cc2)sc1C(=O)c1c(F)cccc1F [Example G395] |  |  |  | 17% | 15% | 19% | 48% |  |
| CN(Cc1ccco1)C(=O)c1ccc(Nc2nc(N)c(C(=O)c3c(F)cccc3F)s2)cc1 [Example G307] |  |  |  | −3% | 12% | 8% | 54% |  |
| Nc1nc(Nc2ccc(C(=O)NC3CCCC3)cc2)sc1C(=O)c1c(F)cccc1F [Example G131] | 6% | 16% | 58% |  |  |  |  | HCT-116 % Inhibition at 0.1 μM ([3]; HCT-116, at 0.1 μM): 0% |
| Nc1nc(Nc2ccc(C(=O)N3CCSC3)cc2)sc1C(=O)c1c(F)cccc1F [Example G33] | −3% | 10% | 54% |  |  |  |  |  |
| N#Cc1cccc(NC(=O)c2ccc(Nc3nc(N)c(C(=O)c4c(F)cccc4F)s3)cc2)c1 [Example G60] | 12% | 18% | 66% |  |  |  |  |  |
| COc1cc(CNC(=O)c2ccc(Nc3nc(N)c(C(=O)c4c(F)cccc4F)s3)cc2)cc(OC)c1 [Example G262] |  |  |  | 1% | 28% | 24% | 59% |  |
| Nc1nc(Nc2ccc(C(=O)NCc3ccco3)cc2)sc1C(=O)c1c(F)cccc1F [Example G249] |  |  |  | 39% | 40% | 37% | 80% |  |
| Nc1nc(Nc2ccc(C(=O)Nc3ccc4[nH]ccc4c3)cc2)sc1C(=O)c1c(F)cccc1F [Example G227] |  |  |  | 28% | 17% | 17% | 84% |  |
| C[C@@H](CN(C)C)N(C)C(=O)c1ccc(Nc2nc(N)c(C(=O)c3c(F)cccc3F)s2)cc1 [Example A36, 4-[4-Amino-5-(2,6-difluoro-benzoyl)-thiazol-2-ylamino]-N-(2-dimethylamino-1S-methyl-ethyl)-N-methyl-benzamide] |  |  |  |  |  |  |  | Ki [1]: 223 nM; Ki [2]: 44 nM; IC50 [3]: 780 nM |
| CCN(CC)C(=O)C1CCCN(C(=O)c2ccc(Nc3nc(N)c(C(=O)c4c(F)cccc4F)s3)cc2)C1 (stereo not drawn) [Example G224] |  |  |  | 16% | 28% | 10% | 53% |  |
